Key:
[1] = tested on: PBMC from FIV-vaccinated cats; assay: Feline IFNγ ELISpot of PBMC from vaccinated cats; format: cell-based, cat; conditions: for IFNγ, frequency of responders: FIV peptides, FIV-vaccinated cats (prototype dual-subtype vaccine)
Procedure: (§1) IFNγ and IL2 ELISpot analyses were performed using feline IFNγ ELISpot and feline IL2 ELISpot kits (R&D Systems, Cat# SEL764 and SEL1890) as described. The threshold is defined as ≥50 spot forming units (SFU) per 1×10^6 PBMC when counted with MVS ELISpot Reader (MVS Pacific, LLC). Each result is an average of the duplicate samples after subtraction of the average value of the media controls.
(§2) Concurrently, the overlapping peptide pools of FIV structural/enzyme proteins were used to stimulate PBMC and T cells from FIV-vaccinated cats. These cats were vaccinated with prototype dual-subtype FIV vaccine which was the prototype to our commercial FIV vaccine (Coleman et al., 2014). The feline assays (Example 1) equivalent to those of human assays (Sanou et al., 2013; Roff et al., 2015) were used except for ICS analysis. In place of ICS for cytolysin/cytotoxins, IL2 ELISpot analysis was performed. […] The results for FIV-vaccinated cats included IFNγ and IL2 productions and CD3^+CD4+ and CD3^+CD8^+ T-cell proliferation (Table 9, the second set of results).
(§3) The feline IFNγ and L2 ELISpot analyses of PBMC to FIV MAPs and peptides were performed as previously described (Abbott et al. (2012)) using feline IFNγ modular kit (R&D Systems, Minneapolis, Minn.) and feline IL2 modular kit (R&D Systems). All results shown in the figures (FIGS. 8A-1, 8B-1, 8A-2, 8B-2, 8A-3, 8B-3) are after subtracting the average value of the results from all control cats.
(§4) The second parameter evaluated was the ability of the peripheral blood mononuclear cells (PBMC) from vaccinated and control cats to produce IL2 and interferon-γ (IFNγ) proteins in responses to FIV MAPs and peptides (FIGS. 8A-1, 8A-2, 8A-3, 8B-1, 8B-2, 8B-3) using feline IL2 and IFNγ ELISpot assays (Aranyos et al. (2016); Abbott et al. (2012)). IL2 enhances the proliferation of FIV-specific CD4^+ T cells and CD8^+ T cells. IFNγ is known enhance the FIV-specific CTL activities in vaccinated cats (Abbas et al. (2015)).

[2] = tested on: PBMC from FIV-vaccinated cats; assay: Feline IL2 ELISpot of PBMC from vaccinated cats; format: cell-based, cat; conditions: FIV peptides
Procedure: as §1, §2, §3, §4

[3] = tested on: feline CD3^+CD4^+ T cells; assay: CFSE-based feline CD3+CD4+ T-cell proliferation; set-up: species or system cat; conditions: FIV peptides; FIV-vaccinated cats
Procedure: (§5) Carboxyfluorescein diacetate succinimide ester (CFSE)-proliferation was performed according to the manufacturer's protocol (Invitrogen, Grand Island, N.Y.) and processed using a previously described modification. The modification consisted of 2.5×10^5 CFSE-labeled feline PBMC stimulated for 5 days (37° C., 5% CO2) with 4 μg/mL peptide in culture media (RPMI medium 25 µg/mL gentamycin, and 10% heat-inactivated fetal bovine serum (FBS)). Peptide pools consisted of 3-5 overlapping peptides of 4 μg/mL each. The antibodies used for flow cytometry based proliferation analysis consisted of murine anti-feline (Fe) CD3 monoclonal antibody (MAb clone kindly provided by Drs. Yorihiro Nishimura and Takayuki Miyazawa; described in [32]) combined with secondary goat anti-mouse IgG3-APC/CY7 MAb (SouthernBiotech, Birmingham, Ala.; Cat#1100-19); and murine anti-FeCD4-PE MAb (SouthernBiotech, Cat#8130-09); and murine anti-FeCD8 MAb (MAb clone kindly provided by Dr. Nazareth Gengozian, described in [33]) with secondary goat anti-mouse IgG2a-PE/CY7 (Southern Biotech, Cat#1080-17). The murine anti-B220-APC MAb for detecting feline B cells (SouthernBiotech, Cat#1665-11) and previously described MAbs for CFSE were used for FACS phenotyping. Both FACS phenotyping and CFSE-proliferation analyses were performed with BD LSRII and FACSDiva™ Software (BD Biosciences, San Jose, Calif.). The final value for each sample was derived after subtraction of the average value of the media controls using a positive threshold of ≥1 CFSE^low.
as §2
(§6) Carboxyfluorescein diacetate succinimide ester (CFSE)-proliferation analysis was according to the manufacturer's protocol (Invitrogen-Fisher, Carlsbad, Calif.) and processed as previously described (Roff et al. (2015)) using the following modifications: anti-feline CD3 antibody ((clone NZM1), a generous gift from T. Miyazawa (Univ. of Tokyo, Japan)) in combination with APC-conjugated anti-mouse IgG3 (Southern Biotech, Birmingham, Ala.), PE-conjugated anti-feline CD4 antibody (Southern Biotech), and anti-feline CD8 antibody (gift from N. Gengozian, University of Tennessee (Gengozian et al. (1997))) in combination with PE/Cy7-conjugated anti-mouse IgG2b (Southern Biotech) to detect the proliferation of feline CD3^+CD4+ T cells and feline […]. All results shown in the figures (FIGS. 7A-1, 7B-1, 7A-2, 7B-2, 7A-3, 7B-3) are after subtracting the average value of each results from all control cats. The threshold of CFSE proliferation is ≥0.5 CFSE^low. […]

[4] = tested on: feline CD3^+CD8^+ T cells; assay: CFSE-based feline CD3+CD8+ T-cell proliferation; set-up: species or system cat; conditions: for CD8^+ T (T-cell proliferation), frequency of responders: FIV peptides
Procedure: as §5, §2, §6

FIVFC1 = assay: FIV enhancement and suppression (E/S) analysis of in vitro FIV infection of feline PBMC; format: cell-based, feline immunodeficiency virus; conditions: FIV peptides; in vitro FIV infection of uninfected cat PBMC
Procedure: FIV viral enhancement or suppression was determined using a 48-well modification of the method described for detecting FIV enhancing activity of IFNγ and FIV suppressive activity of IFNα [37]. […] MAP1c contained four branched chains of peptide Fp4-3. T-cell mitogen concanavalin A (ConA) at 4 μg/mL was used as an infection enhancing control. Six hours after the culturing with peptide, MAP, or ConA, varying dilutions of FIVFC1 were added to the wells. Seventy-two hours later the cells were re-cultured in fresh culture media with ConA-stimulated autologous PBMC (0.25-0.5×10^6) using the same amount of corresponding peptide, MAP, ConA or media. On Day 7, 10, and 13 of culture, 0.5 mL of culture fluid was collected and 0.5 mL of fresh media added to maintain a consistent volume. The harvested culture samples were analyzed for FIV titer using the previously described RT assay. The results are shown as the end-point dilution titer from two studies using PBMC from different SPF donors.
Statistical analysis. The statistically significant differences between the end-point dilution titers of the peptide or MAP culture samples and either the virus control samples or specific MAP culture samples were calculated using a paired Student t-test with a two-tailed distribution (SigmaPlot version 11.0). Statistical comparisons between pre and post-vaccination(s) were similarly performed. The comparison was considered statistically significant when p<0.05.

[5] = cats of Group 1, MAP Vaccine Trial 1 (FIG. 3)

**Q.** Which “IFNγ, frequency of responders” value [1] does the source give for KKKSGKWRLIDFRVLNKL [FRT3-3/4] here?
**A.** The value was “+++ (40.1%-54% (+++))”.

**Q.** And the IFNγ production [1, 5]?
**A.** Its IFNγ production is 531 SFU/10^6 PBMC.

**Q.** What about the “IL2, frequency of responders” value [2] of the same sequence?
**A.** The value was “++++ (>54% (++++))”.

**Q.** What about the “CDC4^+ T (T-cell proliferation), frequency of responders” value [3] of the same sequence?
**A.** The value was “— (0%-1.4%(—))”.

**Q.** What about the “CD8^+ T (T-cell proliferation), frequency of responders” value ([4]; FIV-vaccinated cats) of the same sequence?
**A.** The value was “+++ (40.1%-54% (+++))”.

**Q.** And the “Responder frequency in CD8+ T-cell proliferation” value ([4]; FIV-vaccinated cats, in vitro analyses (Table 9))?
**A.** The value was 44.4%.

**Q.** What about the “% CD8+ T-cell CFSE^low over % CD4+ T-cell CFSE^low ratio (CD8/CD4 response ratio)” value [4, 5] of the same sequence?
**A.** The value was 9.

**Q.** What about the “FIV Test E/S (enhancer/suppressor analysis)” value (FIVFC1) of the same sequence?
**A.** Its value is “↓”.

**Q.** For “RAWYLEALGKLAAIKAK [Fp10-2/3, overlapping peptide of MAP6]”, which “IFNγ, frequency of responders” value [1] is on record?
**A.** Its value is “— (0%-1.4%(—))”.

**Q.** And the “IL2, frequency of responders” value [2]?
**A.** Its value is “+++ (40.1%-54% (+++))”.

**Q.** What about the “CDC4^+ T (T-cell proliferation), frequency of responders” value [3] of the same sequence?
**A.** The value was “— (0%-1.4%(—))”.

**Q.** And the “CD8^+ T (T-cell proliferation), frequency of responders” value ([4]; FIV-vaccinated cats)?
**A.** Its value is “— (0%-1.4%(—))”.

**Q.** What about the “FIV Test E/S (enhancer/suppressor analysis)” value (FIVFC1) of the same sequence?
**A.** The value was “↓”.

From patent US10758609B2, “Cross-reactive T-cell epitopes of HIV, SIV, and FIV for vaccines in humans and cats” (priority 2015, dated 2020)
